# Measured values from US9663561B2, “Methods of treatment of cancer using SRC-modulating peptides” (The University of Toledo, priority 2006, dated 2017).
# How the values were obtained:
# [1] = biological target: T1, Src-ECFP and EYFP-rat α1 in LLC-PK1 cells (Rattus norvegicus, UniProt P06685); assay: FRET analysis in live cells; type: cell-based, pig; conditions: 100 μM ouabain, live LLC-PK1 cell
# T1 construct: expressed in transfected cells; host or cells: LLC-PK1 (pig kidney)
# Method: LLC-PK1 cells were cotransfected with Src-ECFP and EYFP-rat α1 and grown on a glass coverslip for 24 h. The coverslip was then mounted in a metal chamber and analyzed with a Leica DMIRE2 confocal microscope. The laser lines of 456 nm and 515 nm were used to illuminate fluorescence, and the emission intensities were recorded at 465-509 nm for Src-ECFP and 530-570 nm for EYFP-rat α1. The cell that expresses both Src-ECFP and EYFP-rat α1 was chosen and illuminated by only 456-nm laser. The cells express only Src-ECFP or EYFP-rat α1 were used for correction and determination of the laser intensity as well as the gain and offset settings. The emission intensities for both Src-ECFP and EYFP-rat α1 in selected membrane region was recorded at 465-509 nm (FECFP) and 530-570 nm (FEYEP), respectively. The FRET efficiency was reflected by the ratio of FEYFP/FECFP. After 50 s of recording, the same cell was exposed to ouabain and the recording was continued for indicated time.
# SYF and SYF+Src cells = assay: Protein tyrosine phosphorylation in SYF and SYF+Src cells; type: cell-based, mouse; conditions: 100 μM ouabain 5 min
# Method: FIG. 9B. Both SYF and SYF+Src cells were treated with 100 μM ouabain for 5 min and analyzed as in A. Representative Western blots of three experiments are shown in both A and B.
# (§1) Cells were lysed in RIPA buffer containing 1% Nonidet P40, 0.25% sodium deoxycholate, 150 mM NaCl, 1 mM EDTA, 1 mM phenylmethylsulfonyl fluoride, 1 mM sodium orthovanadate, 1 mM NaF, 10 μg/ml aprotinin, 10 μg/mlleupeptin, and 50 mM Tris-HCl (pH 7.4). Cell lysates were cleared by centrifugation at 16,000×g for […], and the supernatants (1 mg) were either immunoprecipitated with anti-α1 antibody or incubated with different GST-fusion proteins. The complexes were then pulled down by either protein G agarose or glutathione beads (Ma et al., 2000; Haas et al., 2002) and analyzed by Western blot.
# [2] = biological target: T2, Na+/K+-ATPase/Src complex (Sus scrofa, UniProt P05024); assay: Src pY418 phosphorylation of the Na+/K+-ATPase/Src complex (Western blot); type: biochemical
# T2 construct: Na+/K+-ATPase was purified from pig kidney outer medulla using the Jorgensen method; tissue Upstate Biotechnology (Src only); host or cells: pig kidney outer medulla (Na+/K+-ATPase)
# Method: (§2) The Src kinase activity was assayed using a commercial kit (Haas et al., 2000). To determine how Na+/K+-ATPase affects Src kinase activity, the purified Src (4.5 U) was incubated with 5 μg of the purified Na+/K+-ATPase in the Src assay buffer for 30 min at room temperature. Afterward, both control Src or the Na+/K+-ATPase-bound Src were exposed to 10 μM ouabain and Src kinase activity was determined. In other experiments, the Src pY418 was measured by anti-pY418 antibody to indicate Src activation (Ma et al., 2000). To do so, the purified Src (4.5 U) was incubated with different amounts of the purified Na+/K+-ATPase or GST-Na+/K+ATPase constructs in phosphate-buffered saline (PBS) for 30 min at 37° C. Afterward, 2 mM ATP/Mg2+ was added. The reaction continued for 5 min at 37° C. and was stopped by addition of SDS sample buffer.
# The purified Na+/K+-ATPase was solubilized in 1% Triton X-100 PBS and centrifuged at 100,000×g for 30 min. The supernatant was collected for the binding assay. GST-fusion proteins (5 μg) were conjugated on glutathione beads and incubated with the solubilized Na+/K+-ATPase in 500 μl PBS in the presence of 0.5% Triton X-100 at room temperature for 30 min. The beads were washed with the same buffer for four times. The bound Na+/K+ATPase was resolved on 10% SDS-PAGE and detected by Western blot. Reciprocal binding assay using GST-Na+/K+-ATPase constructs (5 μg) and purified Src lacking of first 85 amino acids (200 ng) or His-tagged Src constructs (100 ng) was done similarly. To test if native Na+/K+-ATPase binds Src, the above experiments were repeated in the absence of Triton X-100. To make the Na+/K+-ATPase/Src complex, 2-5 μg of the purified Na+/K+ATPase was incubated with 4.5 U of Src (˜10 ng) in PBS in the absence of Triton X-100 at room temperature for 30 min. The complex was either used for the experiments directly as indicated or collected by centrifugation at 100,000×g for 30 min.
# LLC-PK1 cells = assay: Recruitment of Src to the Na+/K+-ATPase signaling complex (co-immunoprecipitation); type: cell-based, pig; conditions: 1 μM ouabain 5 min, control cells
# Method: FIG. 9C Inhibition of Src blocks ouabain-induced recruitment of Src to the Na+/K+-ATPase signaling complex. LLC-PK1 cells were pretreated with 1 μM PP2 or PP3 for 15 min and then exposed to 1 μM ouabain for 5 min. Cell lysates were immunoprecipitated and analyzed. Values are mean±SE of at least four independent experiments. * p<0.05.
# as §1
# [3] = biological target: T2, Na+/K+-ATPase/Src complex; assay: Src kinase activity (commercial kit) of Na+/K+-ATPase-bound Src; type: biochemical; conditions: 10 μM ouabain
# Method: as §2
# Src and ERKs = conditions: cultured cells and animal models; cited from earlier work
# Na+/K+-ATPase = Na+/K+-ATPase activity assay in cell lysates; type: biochemical, pig; conditions: 10 μM ouabain, PY-17 and P-11 cells
# Method: Na+/K+-ATPase enzymatic activity was determined Briefly, cells were collected from the cultures in Tris-EGTA buffer (pH 7.2) and briefly sonicated. The cell lysates were then treated with alamethicin at a concentration of 0.1 mg/mg of protein for 30 min at room temperature. ATPase activity was measured by the determination of the initial release of 32P from [,y-32P]ATP, and the reaction was carried out in a reaction mixture (1 ml) containing 100 mM NaCl, 25 mM KCl, 3 mM MgCl2, 1 mM EGTA, 2 mM ATP, 5 mM NaN3, and 50 mM Tris-HCl (pH 7.4). Na+/K+-ATPase activity was calculated as the difference between the activities measured in the absence of ouabain and in the presence of 1 mM ouabain. To determine the ouabain concentration curve, the alamethicin-treated cell lysates were preincubated with different concentrations of ouabain for 15 min before ATP was added to start the reaction.
# [4] = 10 μM ouabain 15 min before centrifugation
smiles,measurement,setting,value
C[C@@H]1O[C@@H](O[C@H]2C[C@@H](O)[C@]3(CO)[C@H]4[C@H](O)C[C@]5(C)[C@@H](C6=CC(=O)OC6)CC[C@]5(O)[C@@H]4CC[C@]3(O)C2)[C@H](O)[C@H](O)[C@H]1O [ouabain],FRET between Src-ECFP and EYFP-rat α1,[1],reduction in FRET
same,effects of ouabain on protein tyrosine phosphorylation,SYF and SYF+Src cells; SYF cells,completely abolished
same,effects of ouabain on protein tyrosine phosphorylation,SYF and SYF+Src cells; SYF+Src cells,restored
same,Src pY418 of cosedimented complex,[2]; [4],increased the amount of Src pY418
same,total Src cosedimented with the Na+/K+-ATPase,[2]; [4],no effect on total Src cosedimented
same,Src pY418 of Na+/K+-ATPase/Src complex,"[2]; different concentrations of ouabain, 2 mM ATP/Mg2+, 5 min",significantly increased the pY418 in a dose-dependent manner
same,Src pY418 of Na+/K+-ATPase/Src complex,[2]; ouabain in the presence of vanadate,still able to stimulate pY418 of Src
same,Src coprecipitated with α1,LLC-PK1 cells,increased coprecipitated Src
same,Src kinase activity of Na+/K+-ATPase-bound Src,[3],restored the kinase activity
same,physiological concentrations able to activate Src and ERKs,Src and ERKs,0.1-1 nM
same,inhibition of the Na+/K+-ATPase in cell lysates,Na+/K+-ATPase,complete inhibition
